Measured values as given in patent publication US5405837A, “Method for the treatment of neoplastic disease utilizing tiazofurin and ribavirin” (Indiana University Foundation, priority 1993, dated 1995).

Legend:
spontaneous leukemia = settings: in some cases; Cancer Research 36:631-639 (1976); cited from earlier work
IMP DH = IMP DH activity in ACI/N rats bearing s.c. transplanted hepatoma 3924A after tiazofurin and subsequent ribavirin; assay type: in vivo, rat
Protocol: In this example, ACI/N rats bearing s.c. transplanted hepatoma 3924A were administered daily i.p. injections of 150 mg/kg tiazofurin (trade name Tiazole, Viratek, Inc.) for two days. The rats were then divided into two groups: one received daily i.p. injections of saline, the other received 100 mg/kg ribavirin (trade name Virazole, Viratek, Inc.) for an additional two days.
Tiazofurin reduced the IMP DH activity to 10% and ribavirin maintained the inhibition of IMP DH activity at 20-30% of the control values. The IMP DH activity in the saline-treated rats returned to the untreated levels. (see FIGS. 1 through 5).

rat bone marrow = test: Ribavirin alone versus tiazofurin, IMP DH activity and cellularity in rat bone marrow (FIGS. 1 and 2); assay type: in vivo; settings: at lower doses
Text: (see FIGS. 1 and 2). […] Bekesi, J. G. et al., Treatment of Spontaneous Leukemia in AKR Mice with Chemotherapy, Immunotherapy, or Interferon, Cancer Research 36:631-639 (1976).
FIG. 1 is a graph of experimental data showing the effect of Tiazofurin and subsequent Ribavirin treatment on IMP DH activity in rat bone marrow.
FIG. 2 is a graph of experimental data showing the effect of Tiazofuran and subsequent Ribavirin treatment on cellularity in rat bone marrow.

SMILES: NC(=O)c1ncn([C@@H]2O[C@H](CO)[C@@H](O)[C@H]2O)n1 [ribavirin, 1-β-D-ribofuranosyl-1,2,4-triazole-3-carboxamide]
- antitumor effect (spontaneous leukemia): little or no antitumor effect
- IMP DH activity, % of the control values (IMP DH; 100 mg/kg ribavirin daily i.p. for two more days after two days of tiazofurin 150 mg/kg): 20-30%
- effectiveness when administered alone (rat bone marrow): less effective than tiazofurin

SMILES: NC(=O)c1csc([C@@H]2O[C@H](CO)[C@@H](O)[C@H]2O)n1 [tiazofurin, 2-β-D-ribofuranosylthiazole-4-carboxamide]
- IMP DH activity (IMP DH; 150 mg/kg tiazofurin daily i.p. for two days, ACI/N rats with hepatoma 3924A): 10%
